Source: patent US11371097B2, “Articles for diagnosis of liver fibrosis” (THE GOVERNMENT OF THE UNITED STATES, as represented by THE …, priority 2015, dated 2022)
Where “and” joins values, the source holds several entries; their conditions need not be identical. Equal values may be shown once. Read-outs that look alike come from different tables or passages of the source.

Experiments:
liver [1] = settings: cited from earlier work
liver [2] = type: in vivo, Male Sprague-Dawley rats
Experimental: All chemical compounds were diluted in corn oil (CAS No. 8001-30-7) (MP Biomedicals, LLC (Solon, Ohio)). The dose volume was 5 mL/kg. Doses were selected based on doses published in the DrugMatrix database, the National Toxicology Program reports, and ATSDR reports.
(§1) In vivo rat experiments were performed at Integrated Laboratory Systems (ILS, Research Triangle Park, NC). ILS's Institutional Animal Care and Use Committee approved all experimental procedures. Research was conducted in compliance with the Animal Welfare Act, and other Federal statutes and regulations relating to animals and experiments involving animals and adheres to principles stated in the “Guide for Care and Use of Laboratory Animals” as prepared by the Committee on Care and Use of Laboratory Animals of the Institute of Laboratory Animal Resources, National Research Council in facilities that are fully accredited by the Association for Assessment and Accreditation of Laboratory Animal Care, International. Male Sprague-Dawley rats (CD IGS [CRL:CD (SD)]) were purchased from Charles River Laboratories (Stone Ridge, N.Y.). Rats weighing 215-245 g (8 weeks old) were used. Briefly, rats were housed two per cage with a rat tunnel enrichment device (Bio-Serve, Frenchtown, N.J.). Rats were fed a Purina Rodent Diet No. 5002 (Ralston Purina Co., St. Louis, Mo.), supplied ad libitum. Animals received reverse osmosis-treated tap water (City of Durham, N.C.) ad libitum, which was changed at least once weekly. Controls in the animal rooms were set to maintain temperatures between 20-In vivo rat experiments were performed at Integrated Laboratory Systems (ILS, Research Triangle Park, NC). ILS's Institutional Animal Care and Use Committee approved all experimental procedures. Research was conducted in compliance with the Animal Welfare Act, and other Federal statutes and regulations relating to animals and experiments involving animals and adheres to principles stated in the “Guide for Care and Use of Laboratory Animals” as prepared by the Committee on Care and Use of Laboratory Animals of the Institute of Laboratory Animal Resources, National Research Council in facilities that are fully accredited by the Association for Assessment and Accreditation of Laboratory Animal Care, International. Male Sprague-Dawley rats (CD IGS [CRL:CD (SD)]) were purchased from Charles River Laboratories (Stone Ridge, N.Y.). Rats weighing 215-245 g (8 weeks old) were used. Briefly, rats were housed two per cage with a rat tunnel enrichment device (Bio-Serve, Frenchtown, N.J.). Rats were fed a Purina Rodent Diet No. 5002 (Ralston Purina Co., St. Louis, Mo.), supplied ad libitum. Animals received reverse osmosis-treated tap water (City of Durham, N.C.) ad libitum, which was changed at least once weekly. Controls in the animal rooms were set to maintain temperatures between 20-25° C. with a relative humidity of 30-70% and a 12-hour light/12-hour dark cycle, lights on at 6:00 AM. Clinically healthy animals were assigned to dose groups using a procedure that stratifies animals across groups by body weight such that mean body weight of each group was not statistically different from any other group using analysis of variance (Statistical Analysis System version 9.2, SAS Institute, Cary, N.C.). Animals were dosed by oral gavage for five consecutive days (+10 minutes from the previous day's dose administration time). Volume was based upon daily body weight.
Animals were observed cageside one hour following daily dose administration, then 1-2 times per day during dosing regimens. Body weights were measured daily prior to dose administration, and prior to euthanasia. Twenty-four hours after the final dose administration, animals were anesthetized with isoflurane then euthanized by exsanguination followed by decapitation. Livers were harvested at necropsy and weighed to within 0.1 g. One half of the left lobe of the liver was fixed in 10% formalin. […]

[3] = type: in vivo, Male Sprague-Dawley rats
Experimental: as §1
Animals were observed cageside one hour following daily dose administration, then 1-2 times per day during dosing regimens. Body weights were measured daily prior to dose administration, and prior to euthanasia. Twenty-four hours after the final dose administration, animals were anesthetized with isoflurane then euthanized by exsanguination followed by decapitation. Livers were harvested at necropsy and weighed to within 0.1 g. One half of the left lobe of the liver was fixed in 10% formalin. The remaining half of the left lobe of the liver was flash frozen in liquid nitrogen, then stored below −70° C. Liver specimens were frozen in less than three minutes from time of death.

Tgfb1 = experiment: qPCR of liver RNA: Tgfb1; type: in vivo, Male Sprague-Dawley rats; settings: liver, across dose groups, vs control
Experimental: (§2) Working on dry ice, a portion (−10 mg) of flash-frozen liver was cut from each sample and transferred to a clean, labeled tube. Total RNA was then isolated using Qiagen's miRNeasy 96 kit (Qiagen, Valencia, Calif.) following manufacturer's instructions with a final elution volume of −150 μL (2×75 μL). The quality and quantity of RNA samples were evaluated with a 2100 Bioanalyzer (Agilent Technologies, Santa Clara, Calif.), using the Agilent RNA 6000 Nano Reagents and a multiwell NanoDrop 8000 spectrophotometer (Thermo Fisher Scientific, Waltham, Mass.).
(§3) Using 1 μg RNA input, cDNA was generated using a QuantiTect Reverse Transcription kit (Qiagen, Valencia, Calif.) following manufacturer's instructions. Applied Biosystems SYBR Green Master Mix was used in a 20 μL qPCR reaction with 2 μL of cDNA template and a 2.tM final concentration of each primer. A total of five genes were targeted (Gapdh, Actb, Timp1, Tgfbl, and Psma5), two of which served as the endogenous controls (Gapdh and Actb). An Applied Biosystems 7500 Real-Time PCR System (Applied Biosystems, Foster City, Calif.) was used for thermal cycling and fluorescence detection using the default settings for Quantitation-Comparative CT with SYBR® . . . Green Reagents which uses the following scheme: 95° C. for 10 minutes followed by 40 cycles of: 95° C. for 15 seconds, 60° C. for 1 minute, and a fluorescence signal read. Al! primers were obtained from Integrated DNA Technology's PrimeTime qPCR primer library (Integrated DNA Technologies, Coralville, Iowa).
Data was imported into GraphPad Prism (GraphPad Software, Inc.; LaJolla, Calif.) for analysis. A nonparametric Kruskal-Wallis analysis of variance by ranks with post hoc […] multiple comparison test was used to determine statistical difference among dose groups. A one sample t-test compared to a theoretical mean of 1.0 fold change was used to determine difference from control for each dose group. A p-value<0.05 was used as a cutoff for statistical significance.

Timp1 = experiment: qPCR of liver RNA: Timp1; type: in vivo, Male Sprague-Dawley rats; settings: across dose groups, vs control
Experimental: as §2
as §3, with “Al! primers were obtained from Integrated DNA Technology's PrimeTime qPCR primer library (Integrated DNA Technologies, Coralville, Iowa).” left out

[4] = system: 67 genes on the fibrosis gene panel; experiment: Multiplexed fibrosis gene panel (QuantiGene 2.0 Plex / Bioplex) on liver RNA; settings: liver, 67 genes
Experimental: mRNA is isolated and purified from lysed tissue biopsy specimens. The target mRNA is incubated with beads conjugated to capture probes (each probe is an oligonucleotides specific for one of the genes in the panel). The target is hybridized to the probe by a capture extender-capture probe interaction. Specific mRNA targets hybridize overnight to the respective beads. The signal is amplified by incubating mRNA-capture probe pairs by affixing an amplifier affixed to a biotinylated label probe. Streptavidin-conjugated phycoerythrin (SAPE) is bound to the biotinylated probe to amplify the signal. The signal is detected and quantified by Bioplex suspension array instrumentation, which measures the SAPE fluorescence signal proportional to the amount of mRNA transcripts captured by the bead.
Candidate genes identified by co-expression modules and pathway/network approaches were fabricated into a custom gene panel using a commercial source (the QuantiGene 2.0 Plex assay, Affymetrix, Santa Clara, Calif.). A total of 71 genes plus 3 housekeeping genes were selected. Using 150 ng RNA input, samples were processed following manufacturer's instructions for purified RNA with use of the HandHeld Magnetic Plate Washer. Plates were read immediately following the final wash using the BioPlex 200 instrument (BioRad, Hercules, Calif.). The following parameters were set on the BioPlex instrument: sample size=100 μL; DD Gate=5,000-25,000; Timeout=45 sec; Bead Event/Bead Region=100.
For each sample, the average signal intensity was determined as recommended by the manufacturer. Duplicates were averaged. The average background signal for each gene was subtracted. Assay limit of detection was determined by adding three standard deviations of assay background signals to the average intensity of the background control wells. All intensities lower than the limit of detection for each probe was set to one unit above the probe's limit of detection. Probes with all intensities below the assay limit of detection were removed from the final analysis. The test gene signal was divided by the average intensities of the three normalization genes (Gapdh, Hprt1, Ppib). For each test gene, the fold change was calculated by dividing the normalized value for the treated samples by the normalized value of the vehicle-treated controls. Fold changes were plotted as log2 fold change. Gene expression data were imported into Partek Genomics Suite 6.0 (Partek, Inc., St. Louis, Mo.). Principal component analysis was used for multivariate interpretation to determine sources of variation across sample groups (Joliffe I T, Morgan B J. Principal component analysis and exploratory factor analysis. Statistical methods in medical research 1992; 1(1):69-95). Differentially expressed genes were determined by analysis of variance (ANOVA) with contrasts, setting the ANOVA factors as toxicant and the histopathological endpoint of fibrosis (any score >0). ANOVA variables were fibrosis score 0 (none) vs. score of >0 (minimal, mild, moderate, and marked). For hierarchical biclustering, differentially expressed genes were standardized by setting the genes expressed to a mean of zero and scaling to a standard deviation of one. Euclidean geometry was used to cluster row and column dissimilarity using a method of average linkage.
Chemical-dose groups were down-selected based on histopathology to conform to the 96-well assay format of the multiplexed panel of presumptive fibrosis genes. Three of the four dose groups were evaluated for the fibrogenic chemicals allyl alcohol and 4,4′-methylenedianiline. A single dose was selected with group-matched vehicle controls for each of the remaining chemicals. […] The highest dose of bromobenzene was selected because the vacuolation pathology was only observed at this dose.
Isolated liver RNA was incubated with microbead-bound capture probes specific for the 71 presumptive fibrogenic genes and three housekeeping normalization genes.

[5] = 5-7 days oral administration or intraperitoneal injection, various doses
[6] = Allyl Alcohol 9.7 mg/kg, animals 9-12
[7] = Allyl Alcohol 45 mg/kg, animals 17, 18, 20
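Wherever Cytoplasmic Alteration is given: Severity grades from None 0% through Minimal Mild Moderate to Marked over 80% tissue affected.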
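Wherever Inflammation is given: Severity grades from None 0% through Minimal Mild Moderate to Marked over 80% tissue affected.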
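Wherever Vacuolation is given: Severity grades from None 0% through Minimal Mild Moderate to Marked over 80% tissue affected.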

For `S=C=Nc1cccc2ccccc12` [1-naphthyl isothiocyanate], the “Fibrosis score in the DrugMatrix study” value (liver [1]; rat, in vivo) is given as “scored fibrosis-positive”.

For `CC(C)(Oc1ccc(CCNC(=O)c2ccc(Cl)cc2)cc1)C(=O)O` [bezafibrate], the “Fibrosis score in the DrugMatrix study” value (liver [1]; [5]) is given as “scored fibrosis-positive”.

In the case of `COc1ccccc1OCCNCC(O)COc1cccc2[nH]c3ccccc3c12` (stereo not shown) [carvedilol], the “Fibrosis score in the DrugMatrix study” value (liver [1]; [5]) is listed as “scored fibrosis-positive”.

For `CC=CC(=O)N(CC)c1ccccc1C` [crotamiton], the “Fibrosis score in the DrugMatrix study” value (liver [1]; [5]) is given as “scored fibrosis-positive”.

For `C[C@]12CC[C@H]3[C@@H](CCC4=CC(=O)CC[C@@]43C)[C@@H]1CC[C@@H]2O` [testosterone], the “Fibrosis score in the DrugMatrix study” value (liver [1]; [5]) is listed as “scored fibrosis-positive”.

In the case of allyl alcohol, the “Bile Duct Hyperplasia and Fibroplasia” value (liver [2]; [6]) is reported as 0, the “Cytoplasmic Alteration” value (liver [2]; [6]) is reported as 1 and the Inflammation (liver [2]; [6]) is reported as 0. For the same compound, the Necrosis (liver [2]; [6]) was 0, the Vacuolation (liver [2]; [6]) was 0 and the Vacuolation (liver [2]; Allyl Alcohol 20.9 mg/kg, animals 13-16) was 0. The “Bile Duct Hyperplasia and Fibroplasia” value (liver [2]; [7]) was 3, the “Cytoplasmic Alteration” value (liver [2]; [7]) was 3 and 4 and 2 and the Inflammation (liver [2]; [7]) was 3 and 2. For the same compound, the Necrosis (liver [2]; [7]) was 3 and 4, the Vacuolation (liver [2]; [7]) was 0 and the “Combined histopathological scores as percent of animals with pathology” value (liver [2]; across dose groups, five days (figure legend)) was “dose-dependent increase in severe pathology”. For the same compound, the “Fibrosis histopathology in the present study” value (liver [2]; high doses) was “associated with fibrosis histopathology”, the “Fibrosis histopathology in the present study” value (liver [2]; high doses, listed as Allyl alcohol) was “scored positive for fibrosis” and the Fibrosis histopathology (liver [2]; low-dose (carbon tetrachloride: all doses)) was “without fibrosis”. The Degree of fibrosis (liver [2]; oral gavage five days, across doses) was “dose-dependent increase in the degree of fibrosis”, the “Histopathology: bile duct hyperplasia, fibrosis, necrosis” value (liver [2]; oral gavage five days, high doses) was “caused bile duct hyperplasia comorbid with fibrosis and necrosis” and the “Body weight gain over the five experimental dosing days” value ([3]; dose groups) was “increase in body weight gain”. For the same compound, the “Body weight change over the five-day exposure interval” value ([3]; highest dose(s)) was “gained less weight over the five-day exposure interval than their low-dose counterparts”, the “Tgfb1 gene expression by qPCR” value (Tgfb1) was “showed a dose-dependent increase” and the “Timp1 gene expression by qPCR” value (Timp1) was “showed a dose-dependent increase”. For the same compound, the “Fibrosis score in the DrugMatrix study” value (liver [1]; [5]) was “scored fibrosis-positive” and the “Hierarchical biclustering of log2 fold-changes in panel gene expression” value [4] was “clustered with the non-fibrogenic chemical-dose groups”.
